Measured values reported in the SangsterLogP compilation.

assay: method code SF, from DOI: 10.1515/bc.2003.056, PMID: 12715901

SMILES	logP
CCC(C)OC(=O)C1(CC)CCC=[N+]1[O-] (stereo unspecified)	0.28
CCCC1(C(=O)OC(C)C)CCC=[N+]1[O-] (stereo unspecified)	0.29
CCCOC(=O)C1(CC)CCC=[N+]1[O-] (stereo unspecified)	-0.11
CCC1(C(=O)OC(C)(C)C)CCC=[N+]1[O-] (stereo unspecified)	0.18
CCCC1(C(=O)OC(C)(C)C)CCC=[N+]1[O-] (stereo unspecified)	0.43
CCCCOC(=O)C1(CCC)CCC=[N+]1[O-] (stereo unspecified)	0.89
CCCOC(=O)C1(CCC)CCC=[N+]1[O-] (stereo unspecified)	0.42
CCCCOC(=O)C1(CC)CCC=[N+]1[O-] (stereo unspecified)	0.46
CCC1(C(=O)OC(C)C)CCC=[N+]1[O-] (stereo unspecified)	-0.18
CC(C)OC(=O)C1(C)CCC=[N+]1[O-] (stereo unspecified)	-0.7
CCOC(=O)C1(CC)CCC=[N+]1[O-] (stereo unspecified)	-0.6
